Reference: ChEMBL document CHEMBL1649219, “Imidocarb dipropionate clears persistent Babesia caballi infection with elimination of transmission potential” (Antimicrob Agents Chemother, 2009)
Calls of active or inactive are those of the source.

Assays:
Assay type in all cases: functional, organism-based
Set-up in all cases: dose 4 mg/kg
Babesia caballi [1] = experiment: Antiparasitic activity against Babesia caballi infected in horse assessed as reduction in parasite specific antibodies at 4 mg/kg, im dosed 4 times at 72 hrs intervals administered 70 days postinfection measured 201 days post dose by C-ELISA
Babesia caballi [2] = experiment: Antiparasitic activity against Babesia caballi receiving blood from 4 times 4 mg/kg, im compound treated donor horse infected with Babesia caballi assessed as reduction in parasite level measured after 100 days post-parasite transmission by nested PCR
Babesia caballi [3] = experiment: Antiparasitic activity against Babesia caballi infected in horse assessed as reduction in parasite level at 4 mg/kg, im dosed 4 times at 72 hrs intervals administered 70 days postinfection and measured 5 days post last dose by quantitative PCR
Babesia caballi [4] = experiment: Antiparasitic activity against Babesia caballi infected in horse assessed as reduction in parasite specific antibodies at 4 mg/kg, im dosed 4 times at 72 hrs intervals administered 70 days postinfection measured 222 days post dose by immunoblot
Babesia caballi [5] = experiment: Antiparasitic activity against Babesia caballi receiving blood from 4 times 4 mg/kg, im compound treated donor horse infected with Babesia caballi assessed as reduction in parasite specific antibodies measured after 100 days post-parasite transmission by C-ELISA
Babesia caballi [6] = experiment: Antiparasitic activity against Babesia caballi infected in horse assessed as reduction in parasite level at 4 mg/kg, im dosed 4 times at 72 hrs intervals administered 70 days postinfection and measured 5 days post last dose by nested PCR
Babesia caballi [7] = experiment: Antiparasitic activity against Babesia caballi infected in horse assessed as reduction in parasite specific antibodies at 4 mg/kg, im dosed 4 times at 72 hrs intervals administered 70 days postinfection measured 56 days post dose by complement fixation assay
Babesia caballi [8] = experiment: Antiparasitic activity against Babesia caballi receiving ticks from 4 times 4 mg/kg, im compound treated donor horse infected with Babesia caballi assessed as reduction in parasite specific antibodies measured after 100 days post-parasite transmission by C-ELISA
Babesia caballi [9] = experiment: Antiparasitic activity against Babesia caballi receiving ticks from 4 times 4 mg/kg, im compound treated donor horse infected with Babesia caballi assessed as reduction in parasite level measured after 100 days post-parasite transmission by nested PCR

Measured: Activity

O=C(Nc1cccc(C2=NCCN2)c1)Nc1cccc(C2=NCCN2)c1
active: Babesia caballi [1] | Babesia caballi [2] | Babesia caballi [3] | Babesia caballi [4] | Babesia caballi [5] | Babesia caballi [6] | Babesia caballi [7] | Babesia caballi [8] | Babesia caballi [9]
